The assay deals with T1, Enoyl-acyl-carrier protein reductase (Plasmodium falciparum, UniProt Q965D5).
T1 sequence (Q965D5 whole entry): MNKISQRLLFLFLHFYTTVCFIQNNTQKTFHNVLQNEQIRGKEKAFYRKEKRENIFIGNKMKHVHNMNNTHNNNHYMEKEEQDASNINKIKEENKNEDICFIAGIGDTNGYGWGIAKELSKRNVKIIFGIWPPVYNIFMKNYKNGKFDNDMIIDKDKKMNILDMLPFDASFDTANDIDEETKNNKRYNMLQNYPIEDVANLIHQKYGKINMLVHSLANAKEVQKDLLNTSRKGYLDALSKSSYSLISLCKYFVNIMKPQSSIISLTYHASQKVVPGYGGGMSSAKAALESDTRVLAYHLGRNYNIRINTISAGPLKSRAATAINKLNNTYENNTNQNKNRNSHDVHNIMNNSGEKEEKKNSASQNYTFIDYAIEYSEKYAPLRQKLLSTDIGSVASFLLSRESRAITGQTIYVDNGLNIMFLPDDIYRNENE
As to the kind of experiment: Inhibition of Plasmodium falciparum enoyl-acyl carrier protein reductase expressed in Escherichia coli BL21(DE3) by spectrophotometry.

The Ki is the equilibrium dissociation constant of an inhibitor or competing ligand from its target. A higher Ki goes with weaker binding. In turn, `Oc1cc(Cl)ccc1Oc1ccc(Cl)cc1Cl` [TRICLOSAN] displayed a Ki of 50 nM.
